Values after ≈ are worked out from the molar mass of the structure shown. A value given as a limit tells only on which side of the number the result lay.

One data set has as its system MV4-11 cells. Nature of the data set: MV4-11 cell proliferation. It is filed as cell-based. The conditions noted are these: for EC50: Homo sapiens, MV4-11, 72 h, read-out: MV4-11 EC50.
For the next data set, the system named is BJ cells. Briefly: BJ fibroblast proliferation. The settings on record: Homo sapiens, 72 h, read-out: BJ EC50, 72 h. It is filed as cell-based.
Data set [1] concerns the target T1, recombinant human FLT3 (571–993) (Homo sapiens, UniProt P36888).
T1 sequence (P36888 571-993): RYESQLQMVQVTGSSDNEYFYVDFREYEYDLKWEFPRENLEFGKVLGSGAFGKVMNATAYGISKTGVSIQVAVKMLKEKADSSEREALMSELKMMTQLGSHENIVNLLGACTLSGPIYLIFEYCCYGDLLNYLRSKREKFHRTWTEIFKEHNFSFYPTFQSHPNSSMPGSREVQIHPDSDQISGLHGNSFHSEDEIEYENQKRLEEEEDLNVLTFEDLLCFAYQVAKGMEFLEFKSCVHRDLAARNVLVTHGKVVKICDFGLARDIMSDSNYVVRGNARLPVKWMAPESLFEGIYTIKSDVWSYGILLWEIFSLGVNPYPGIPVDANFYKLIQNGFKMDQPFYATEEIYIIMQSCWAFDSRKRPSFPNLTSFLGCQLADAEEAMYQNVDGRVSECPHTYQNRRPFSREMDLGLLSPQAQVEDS
Briefly: biochemical. The conditions noted are these: for IC50: FLT3 IC50, FLT3^WT enzyme, 500 μM ATP. It is filed as biochemical.

Data set [2] can be described thus: Liver microsomal stability. The settings on record: both, human, liver microsomes, pH 7.4. (Liver microsomes are a subcellular fraction often used to study metabolism.)
The next data set in a line: Solubility. The data set is classed as physicochemical. The settings on record: buffer, pH 7.4, aqueous buffer, kinetic from dmso stock.
Data set [3] can be described thus: Liver microsomal stability. The conditions noted are these: dog, liver microsomes, pH 7.4.
The nature of data set [4]: Liver microsomal stability. The settings on record: female, CD-1, mouse, liver microsomes, pH 7.4.
Data set [5] can be described thus: Plasma stability. The data set is classed as in vitro ADME. The settings on record: human.
The next data set concerns FLT3-ITD phosphorylation. Nature of the data set: Western blot of FLT3 signaling in MOLM13^FLT3-ITD cells. The data set is classed as cell-based. The settings on record: 1 h, read-out: FLT3 IC50 estimated from loss of FLT3-ITD phosphorylation.
Data set [6] relates to MOLM13^FLT3-ITD/D835Y cells. Briefly: MOLM13 cell viability. It is filed as cell-based. The settings on record: Homo sapiens, MOLM-13, 72 h, read-out: MOLM13^FLT3-ITD/D835Y IC50.
A further data set deals with MOLM13^FLT3-ITD cells. Briefly: MOLM13 cell viability. The conditions noted are these: Homo sapiens, MOLM-13, 72 h, read-out: MOLM13^FLT3-ITD IC50. The data set is classed as cell-based.
The nature of data set [7]: Plasma stability. It is filed as in vitro ADME. The conditions noted are these: rat.
A short description of data set [8]: Liver microsomal stability. The conditions noted are these: rat, liver microsomes, pH 7.4.
Data set [9] is described as follows: Plasma stability. It is filed as in vitro ADME. The conditions noted are these: mouse.

For `CC[C@@H](C)Nc1ccnc(Nc2cccc(-c3cccnc3)c2)n1` [Compound 5k, (R)-N^4-(sec-Butyl)-N^2-(3-(pyridin-3-yl)phenyl)pyrimidine-2,4-diamine], the “fold improvement in MV4-11 growth inhibition relative to 1” value with MV4-11 cells is “approximately 10 fold”.
Consider `CC(C)(C)c1cc(NC(=O)Nc2ccc(-c3cn4c(n3)sc3cc(OCCN5CCOCC5)ccc34)cc2)no1` [quizartinib, reference compound], for which the EC50 (as a rule, the midpoint of the concentration-response curve) in the data set with MV4-11 cells was 0.7 nM; with BJ cells, above 22000 nM.
`c1cncc(-c2cccc(Nc3cc(NC4CCCCC4)ccn3)c2)c1` [Compound 13, N^4-cyclohexyl-N^2-(3-(pyridin-3-yl)phenyl)pyridine-2,4-diamine]: the EC50 in the data set with MV4-11 cells was above 16000 nM; in the data set with BJ cells, 10600 nM. Besides, the IC50 in data set [1] worked out at 1500 nM.
For the compound `c1cncc(-c2cccc(Nc3cccc(NC4CCCCC4)n3)c2)c1` [Compound 9, N^2-Cyclohexyl-N^6-(3-(pyridin-3-yl)phenyl)pyridine-2,6-diamine], the concentration for a half-maximal effect (EC50) in the data set on MV4-11 cells and in the data set with BJ cells was above 10000 nM in each case. Besides, in data set [1], the IC50 is 80 nM.
Regarding `CN(c1cccc(-c2cccnc2)c1)c1nccc(N(C)C2CCCCC2)n1` [Compound 17, N^4-Cyclohexyl-N^2,N^4-dimethyl-N^2-(3-(pyridin-3-yl)phenyl)pyrimidine-2,4-diamine], in the data set with MV4-11 cells, the 50% effective concentration (EC50) worked out at 39 nM. Moreover, in [1], the IC50 is above 15000 nM.
The like results for `c1cncc(-c2cccc(Nc3nccc(OC4CCCCC4)n3)c2)c1` [Compound 19, 4-(Cyclohexyloxy)-N-(3-(pyridin-3-yl)phenyl)pyrimidin-2-amine] were, in that order, above 6000 nM and 187 nM.
In the case of `c1cncc(-c2cccc(Oc3nccc(NC4CCCCC4)n3)c2)c1` [Compound 22, N-Cyclohexyl-2-(3-(pyridin-3-yl)phenoxy)pyrimidin-4-amine], in the data set on MV4-11 cells, the concentration giving a half-maximal response (EC50) was above 14000 nM. Besides, in [1], the “fold reduction of FLT3 enzymatic activity compared to 1” value is listed as around 40 fold and the IC50 came to 1260 nM.
Regarding `c1cncc(-c2cccc(Nc3ccnc(NC4CCCCC4)c3)c2)c1` [Compound 14, N^2-Cyclohexyl-N^4-(3-(pyridin-3-yl)phenyl)pyridine-2,4-diamine], the EC50 with MV4-11 cells was above 8000 nM; with BJ cells, 8740 nM. In data set [1], the IC50 amounted to 141 nM.
Turning to `CN(c1ccnc(Nc2cccc(-c3cccnc3)c2)n1)C1CCCCC1` [Compound 16, N^4-Cyclohexyl-N^4-methyl-N^2-(3-(pyridin-3-yl)phenyl)pyrimidine-2,4-diamine], in the data set on MV4-11 cells, the EC50 is above 8000 nM. Besides, in data set [1], the IC50 was 82 nM.
Regarding `CC(C)(C)Nc1ccnc(Nc2cccc(-c3cccnc3)c2)n1` [Compound 5f, N^4-(tert-Butyl)-N^2-(3-(pyridin-3-yl)phenyl)pyrimidine-2,4-diamine], the “fold improvement in MV4-11 growth inhibition relative to 1” value with MV4-11 cells is listed as “approximately 10 fold”.
`c1cncc(-c2cccc(Oc3nccc(OC4CCCCC4)n3)c2)c1` [Compound 20, 4-(Cyclohexyloxy)-2-(3-(pyridin-3-yl)phenoxy)pyrimidine]: the EC50 in the data set with MV4-11 cells was above 13000 nM. Also, the IC50 in data set [1] came out at 49 nM.
For `c1cncc(-c2cccc(Nc3nccc(NC4CCNCC4)n3)c2)c1` [Compound 5q, N^4-(Piperidin-4-yl)-N^2-(3-(pyridin-3-yl)phenyl)pyrimidine-2,4-diamine], the “fold more potent than 1 against FLT3” value in data set [1] is “approximately 4 fold”.
For the compound `CC(C)Nc1ccnc(Nc2cccc(-c3cnccn3)c2)n1` [Compound 6k, N^4-Isopropyl-N^2-(3-(pyrazin-2-yl)phenyl)pyrimidine-2,4-diamine], the intrinsic metabolic clearance (CLint scaled) (as a rule, a measure of how fast metabolising enzymes remove a compound, apart from limits set by blood flow) at 4 µM in [2] was 14.2 mL/min/kg; in data set [3], 37 mL/min/kg; in data set [4], 485 mL/min/kg; in data set [8], 122 mL/min/kg. Moreover, the half-life – broadly, the time needed for the level to fall by half in the phase considered – at 4 µM in data set [2] is 87.6 ± 6 min; in data set [3] it was 54 ± 1.2 min; in data set [4], 7.08 ± 0.18 min; in data set [8], 22.8 ± 0.6 min. The solubility (commonly how much of the substance goes into solution per volume) at 18 h in “Solubility” was determined as 56.9 ± 1.9 µM (≈ 17.4 µg/mL). In addition, the plasma stability in the data set “Plasma stability [5]”, in “Plasma stability [7]” and in the data set “Plasma stability [9]” was above 50 h each time. Further, the IC50 in the data set with FLT3-ITD phosphorylation is 50 to 100 nM; in data set [6] it was 77 nM; with MOLM13^FLT3-ITD cells it was 45 nM.
For `CC[C@H](C)Nc1ccnc(Nc2cccc(-c3cccnc3)c2)n1` [Compound 5j, (S)-N^4-(sec-Butyl)-N^2-(3-(pyridin-3-yl)phenyl)pyrimidine-2,4-diamine], the “fold improvement in MV4-11 growth inhibition relative to 1” value in the data set on MV4-11 cells is recorded as “approximately 10 fold”.
Turning to `CN(c1cccc(-c2cccnc2)c1)c1nccc(NC2CCCCC2)n1` [Compound 21, N^4-Cyclohexyl-N^2-methyl-N^2-(3-(pyridin-3-yl)phenyl)pyrimidine-2,4-diamine], the EC50 with MV4-11 cells is above 4000 nM. The IC50 in data set [1] is above 11000 nM.

These data come from publication PMC5452050 (ACS Omega, 2017).
